Results as given in patent US11766468B2, “Method of treating prostate cancer with GnRH antagonist” (priority 2012, dated 2023).

Assays:
[1] = system: testosterone; assay: CS21 phase 3 study, degarelix vs leuprolide 7.5 mg: serum testosterone suppression; type: in vivo, human
Experimental: In this example, an open-label, multi-center, randomized, parallel-group study was conducted to investigate the efficacy and safety of degarelix one month dosing regimens. […] These degarelix dosing regimens were compared to LUPRON DEPOT™ at 7.5 mg in patients with prostate cancer requiring androgen ablation therapy. […] Finally, the study evaluated the pharmacokinetics of the degarelix dosing regimens investigated. […] The primary efficacy endpoint was analyzed for both the ITT and PP analysis sets, with the ITT analysis set considered primary. The primary efficacy endpoint was analyzed using the Kaplan Meier method. For each of the three treatment groups, testosterone response rates with 95% confidence interval (CI) were calculated by log-log transformation of survivor function. […] All secondary efficacy endpoints were analyzed for both the ITT and PP analysis sets, unless otherwise stated. […] The percentage change in PSA from baseline to day 28 endpoint was analyzed by a Wilcoxon test. […] The secondary endpoints; probability of testosterone ≤0.5 ng/mL from Day 56 through Day 364, time to PSA failure and probability of sufficient testosterone response from Day 28 through Day 364 were analyzed by the Kaplan-Meier method.

[2] = system: luteinizing hormone (LH); assay: CS21: serum LH over time; type: in vivo, human
Experimental: (§1) Finally, the study evaluated the pharmacokinetics of the degarelix dosing regimens investigated.
(§2) The secondary efficacy endpoints were: the proportion of patients with testosterone surge during the first 2 weeks of treatment; the proportion of patients with testosterone level ≤0.5 ng/mL at day 3; the percentage change in PSA from baseline to day 28; the probability of testosterone ≤0.5 ng/mL from day 56 through day 364; the levels of serum testosterone, LH, FSH and PSA over time through the study; the time to PSA failure, defined as two consecutive increases of 50%, and at least 5 ng/mL as compared to nadir; degarelix concentration over the first month and trough levels at day 308 and 336; the frequency and size of testosterone increases at day 255 and/or 259 compared to the testosterone level at day 252; the quality of life on days 0, 28, 84, 168 and end of study visit; the frequency and intensity of hot flushes experienced (scored daily from study start until end of study visit. In addition, two further secondary endpoints were added: the probability of sufficient testosterone response from day 28 through day 364 (a patient was considered to have insufficient testosterone response if they had one testosterone value >1.0 ng/mL or two consecutive testosterone values >0.5 ng/mL at day 28 onwards); and the percentage change in PSA from baseline to Day 14.

[3] = system: follicle stimulating hormone (FSH); assay: CS21: serum FSH over time; type: in vivo, human
Experimental: as §1, §2

[4] = system: prostate-specific antigen (PSA); assay: CS21: PSA response and PSA failure; type: in vivo, human; details: for Day 14 percentage change in PSA, median / Day 28 percentage change in PSA, median: Day 0 dose degarelix 240@40; for Probability of no PSA failure: degarelix 240@40/80@20, LUPRON DEPOT 7.5 mg; for median percentage change (reduction) in PSA from baseline: leuprolide 7.5 mg with anti-androgen flare protection; for median percentage reduction in PSA from baseline: leuprolide 7.5 mg without anti-androgen
Experimental: as §2
All secondary efficacy endpoints were analyzed for both the ITT and PP analysis sets, unless otherwise stated. The proportion of patients with testosterone surge during the first 2 weeks of treatment was analyzed using Fisher's exact test. Fisher's exact test was also used to analyze the proportion of patients with testosterone level ≤0.5 ng/mL at day 3. The percentage change in PSA from baseline to day 28 endpoint was analyzed by a Wilcoxon test.
The secondary endpoints; probability of testosterone ≤0.5 ng/mL from Day 56 through Day 364, time to PSA failure and probability of sufficient testosterone response from Day 28 through Day 364 were analyzed by the Kaplan-Meier method.

[5] = CS21: incidence rates of cardiovascular events per 1,000 person years (Poisson model), by risk-factor subgroup; details: in vivo
Excerpt: The SCS summarizes both crude incidences (n/N) as well as incidence rates of adverse events (number of patients with at least one adverse event investigated per 1,000 person years) including exact 95% CI based on the Poisson model and presented per MedDRA Preferred term (and grouped by SOC) for all study-groups, including the CS21 trial (the trial comprising the controlled phase 3 study group) and for all sub-groups. Briefly, the Poisson model provides exact 1-α lower (LL) and upper (UL) confidence limits are LL=χ2x; α/2^2/(2T) and UL=χ2(x+1); 1-α/2^2/(2T), respectively, where T is the number of 1,000 person years and x=number of subjects at least once having reported the adverse event under investigation (see Gerlinger et al. (2003) Eur. J. Contracept. Reprod. Health Care 8:87-92).
These P values were presented as *(0.01<P≤0.05), ** (0.001<P≤0.01), and *** (P≤0.001). Similarly, incidence rates were compared using P values associated with the Poison model-based UMPU test. Briefly, assuming xi˜Poisson(λiTi), where xi=the number of subjects with the event, Ti=total number of 1,000 person years in arm i and λi=incidence rate in arm i (i=1,2), then the P value=2 min ([…], P(S≤x1), 0.5), where S˜Binomial (x1+x2, T1/(T1+T2)) (see, e.g. Lehmann (1986) Testing Statistical Hypotheses, 2nd edition, Springer-Verlag, New York).
In the SCS, cardiovascular events were more specifically investigated on more aggregated MedDRA levels, i.e. the incidence, and incidence rates of subject with AEs in the following High Level Group Terms were tabulated by study group and treatment:
These subgroup analyses were not pre-planned as part of the SCS.

[6] = in vivo
Experimental: Body weight was measured at screening and the end of study visit.

[7] = age <65, degarelix 240@40/80@20, LUPRON DEPOT 7.5 mg
[8] = degarelix 240/80 mg, leuprolide 7.5 mg

Structure (SMILES): CCNC(=O)[C@@H]1CCCN1C(=O)[C@H](CCCNC(=N)N)NC(=O)[C@H](CC(C)C)NC(=O)[C@@H](CC(C)C)NC(=O)[C@H](Cc1ccc(O)cc1)NC(=O)[C@H](CO)NC(=O)[C@H](Cc1c[nH]c2ccccc12)NC(=O)[C@H](Cc1c[nH]cn1)NC(=O)[C@@H]1CCC(=O)N1 [Leuprolide, leuprolide, reference compound]
- Probability of sufficient testosterone response [1, 7]: 92.1%
- Probability of testosterone ≤0.5 ng/mL from Day 28 through Day 364 [1, 7]: 89.5%
- Probability of testosterone ≤0.5 ng/mL from Day 56 through Day 364 [1, 7]: 89.5%
- patients with testosterone suppression on day 3 ([1]; day 3): no patients
- Kaplan-Meier probability of testosterone ≤0.5 ng/mL from day 28 to day 364 [1, 8]: 96.4%
- observed cases analysis: proportion of patients with testosterone ≤0.5 ng/mL from day 28 to day 364 [1, 8]: 96.0%
- patients with testosterone surge (increase ≥15% from baseline) ([1]; first two weeks, pooled degarelix, leuprolide 7.5 mg): 80.1%
- median LH level ([2]; by day 56 until day 364): 0.035 IU/L
- median LH level ([2]; day 1): 31.0 IU/L
- increase in median LH from baseline ([2]; day 1, leuprolide 7.5 mg): > 400%
- median FSH plateau ([3]; around day 56 until day 364): approximately 4.40 IU/L
- median FSH level ([3]; by day 14): 2.0 IU/L
- increase in FSH from baseline ([3]; day 1): 146%
- median FSH level (peak) ([3]; day 1): 22.5 IU/L
- Day 14 percentage change in PSA, median ([4]; PCA = Localized): −13.2%
- Day 28 percentage change in PSA, median ([4]; PCA = Localized): −55.7%
- Day 14 percentage change in PSA, median ([4]; PCA = Metastatic): −25.3%
- Day 28 percentage change in PSA, median ([4]; PCA = Metastatic): −79.7%
- Day 14 percentage change in PSA, median ([4]; PCA Locally advanced): −21.3%
- Day 28 percentage change in PSA, median ([4]; PCA Locally advanced): −73.2%
- Probability of no PSA failure ([4]; age <65): 68.2%
- Probability of no PSA failure ([4]; age >=75): 86.8%
- median percentage change (reduction) in PSA from baseline ([4]; day 14): 61.7%
- median percentage reduction in PSA from baseline ([4]; day 14): 15.3%
- median percentage change (reduction) in PSA from baseline ([4]; day 28): 89.1%
- median percentage reduction in PSA from baseline ([4]; day 28): 61.7%
- probability of completing the study without experiencing PSA failure [4, 8]: ~85.8%
- Coronary artery disease, % of patients [5]: (5%)
- Coronary artery disease, incidence rate [5]: 63.4 per 1,000 person years
- HLGT Cardiac arrhythmias, % of patients [5]: (8%)
- HLGT Cardiac arrhythmias, incidence rate [5]: 100 per 1,000 person years
- HLGT Central nervous system vascular disorders, % of patients [5]: (<1%)
- HLGT Central nervous system vascular disorders, incidence rate [5]: 5.63 per 1,000 person years
- HLGT Coronary artery disorders, % of patients [5]: (5%)
- HLGT Coronary artery disorders, incidence rate [5]: 63.4 per 1,000 person years
- HLGT Heart failures, % of patients [5]: (2%)
- HLGT Heart failures, incidence rate [5]: 28.4 per 1,000 person years
- Heart failure, % of patients [5]: (2%)
- Heart failure, incidence rate [5]: 28.4 per 1,000 person years
- MI, % of patients [5]: (2%)
- MI, incidence rate [5]: 22.6 per 1,000 person years
- Stroke, % of patients [5]: (<1%)
- Stroke, incidence rate [5]: 5.63 per 1,000 person years
- markedly abnormal increases in weight of ≥7% from baseline, % of patients [6]: 13%
